Assay results as given in the supplement of paper PMC10307832.

Key:
Assay in all cases: relative viability (nuclei count vs DMSO), 5 days (fraction); higher = more cells survive
AZD1208 + Bortezomib = compound: N[C@@H]1CCCN(c2c(/C=C3\SC(=O)NC3=O)cccc2-c2ccccc2)C1 [AZD1208] + CC(C)C[C@H](NC(=O)[C@H](Cc1ccccc1)NC(=O)c1cnccn1)B(O)O [Bortezomib] (partner 0.002 µM)
Summary of the method: (§1)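 Medians of duplicate plates are given as relative viability. That measure is the nuclei count in treated wells divided by the count in vehicle wells. Counts were taken on 4× images of lung cancer cell lines in 1536-well plates, 5 days after pin-tool dosing the day after seeding with one drug alone or a fixed anchor-drug dose plus five library-drug doses (not always all listed) in √10 steps.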

AZD1208 + Linsitinib = compound: N[C@@H]1CCCN(c2c(/C=C3\SC(=O)NC3=O)cccc2-c2ccccc2)C1 [AZD1208] + C[C@]1(O)C[C@@H](c2nc(-c3ccc4ccc(-c5ccccc5)nc4c3)c3c(N)nccn32)C1 [Linsitinib] (partner 1 µM)
Summary of the method: as §1

XMD14-99 + Tozasertib = compound: CN1CCN(CC1)C2=CC(=C(C=C2)NC3=NC(=C(S3)C(=O)C4=C(C=CC=C4Cl)Cl)N)OC [XMD14-99] + Cc1cc(Nc2cc(N3CCN(C)CC3)nc(Sc3ccc(NC(=O)C4CC4)cc3)n2)n[nH]1 [Tozasertib] (partner 0.1 µM)
Summary of the method: as §1

AZD1208 + Foretinib = compound: N[C@@H]1CCCN(c2c(/C=C3\SC(=O)NC3=O)cccc2-c2ccccc2)C1 [AZD1208] + COc1cc2c(Oc3ccc(NC(=O)C4(C(=O)Nc5ccc(F)cc5)CC4)cc3F)ccnc2cc1OCCCN1CCOCC1 [Foretinib] (partner 0.25 µM)
Summary of the method: as §1

Cell Line	relative viability (AZD1208 + Bortezomib; first compound 0.08 µM)	relative viability (AZD1208 + Bortezomib; first compound 0.253 µM)	relative viability (AZD1208 + Bortezomib; first compound 0.8 µM)	relative viability (AZD1208 + Bortezomib; first compound 2.53 µM)	relative viability (AZD1208 + Bortezomib; first compound 8 µM)	relative viability (AZD1208 + Linsitinib; first compound 0.08 µM)	relative viability (AZD1208 + Linsitinib; first compound 0.253 µM)	relative viability (AZD1208 + Linsitinib; first compound 0.8 µM)	relative viability (AZD1208 + Linsitinib; first compound 2.53 µM)	relative viability (AZD1208 + Linsitinib; first compound 8 µM)	relative viability (XMD14-99 + Tozasertib; first compound 0.08 µM)	relative viability (XMD14-99 + Tozasertib; first compound 0.8 µM)	relative viability (XMD14-99 + Tozasertib; first compound 2.53 µM)	relative viability (XMD14-99 + Tozasertib; first compound 8 µM)	relative viability (AZD1208 + Foretinib; first compound 0.08 µM)	relative viability (AZD1208 + Foretinib; first compound 0.253 µM)	relative viability (AZD1208 + Foretinib; first compound 0.8 µM)	relative viability (AZD1208 + Foretinib; first compound 2.53 µM)	relative viability (AZD1208 + Foretinib; first compound 8 µM)
201T	1.13	1.14	1.13	1.16	1.13	1.02	1.05	0.989	1.01	0.979	0.899	0.915	0.886	0.669	1.06	1.12	1.07	1.06	1
A549	–	–	–	–	–	0.513	0.553	0.504	0.462	0.512	–	–	–	–	0.808	1.05	0.824	0.927	0.708
A-427	1	0.939	0.963	0.936	0.884	1.12	1.12	1	1.17	1.02	0.224	0.227	0.201	0.188	0.924	1.01	0.905	0.865	0.813
ABC-1	0.302	0.31	0.282	0.268	0.213	0.808	0.717	0.626	0.747	0.732	0.185	0.177	0.235	0.217	1.16	1.02	1.13	0.92	0.967
BEN	0.796	0.763	0.495	0.636	0.475	0.815	0.806	0.654	0.572	0.46	0.478	0.471	0.5	0.428	0.609	0.602	0.47	0.571	0.459
CAL-12T	1.32	1.03	0.887	1.03	1.18	0.721	1.13	0.761	0.86	0.909	0.331	0.331	0.307	0.3	1.1	1.28	1.04	1.35	1.38
COR-L23	0.927	1.11	0.888	1.02	0.929	0.84	1.09	0.824	0.825	0.771	0.18	0.211	0.182	0.151	0.961	1.05	0.966	0.94	0.97
COR-L 105	0.712	1.01	0.807	0.544	0.673	0.985	0.884	0.972	0.949	0.939	0.295	0.426	0.33	0.328	0.849	1.09	1.05	–	1
Calu-6	1.01	1.02	0.976	1.03	0.929	0.86	1.03	0.919	0.967	0.872	–	–	–	–	0.861	0.938	0.946	0.867	0.747
ChaGo-K-1	1.21	0.983	1.04	0.975	0.92	–	–	–	–	–	0.217	0.199	0.208	0.226	0.855	0.903	0.808	0.875	0.73
EBC-1	0.597	0.586	0.508	0.456	0.448	0.981	1.08	0.821	0.905	0.764	–	–	–	–	0.0932	0.0985	0.0803	0.0927	0.103
EKVX	1.17	1.21	1.03	1.2	1	0.996	1.19	0.917	0.87	1.11	0.368	0.378	0.392	0.343	0.798	0.744	0.876	0.858	0.913
EMC-BAC-2	1.15	1.16	1.05	1.02	0.919	0.848	0.818	0.747	0.815	0.796	0.28	0.249	0.27	0.254	1.01	1.04	1	1.02	0.727
EPLC-272H	0.878	0.806	0.924	0.927	0.728	1.31	1.17	0.995	1.21	1.09	0.348	0.307	0.264	0.324	0.714	0.71	0.618	0.564	0.478
H3255	0.874	0.758	0.667	0.968	0.718	1.02	1.05	0.866	0.973	0.891	0.721	0.606	0.563	0.454	0.919	0.867	0.65	0.954	0.932
HARA	1.09	1.12	1.08	1.18	1.19	0.948	1.02	0.899	0.964	0.877	0.122	0.0974	0.258	0.0954	0.905	0.709	0.827	0.539	0.804
HCC-15	1.06	1.21	1.07	1.08	0.948	0.811	0.864	0.648	0.793	0.655	0.421	0.31	0.322	0.199	0.956	0.994	0.876	0.88	0.855
HCC-44	0.991	0.952	0.857	0.978	0.95	0.634	0.676	0.665	0.672	0.593	1	0.921	0.929	0.605	–	–	–	–	–
